Source: US4734399A, “Growth hormone releasing factor analogs” (Hoffmann-La Roche Inc., priority 1986, dated 1988)

Legend:
[1] = test system: release of growth hormone; conditions: in vitro; Rivier et al., Nature 300: 276 (1982); cited from earlier work
[2] = test system: rat pituitary cells; assay: Stimulation of growth hormone production in rat pituitary cells in tissue culture (RIA for rat growth hormone); format: cell-based; conditions: for Potency Relative to GRF(1-44)-NH2: Exp. #GB 83, rat anterior pituitary cells, 4 hours of incubation, 0.8 to 200 fmol per ml, GH by RIA
Experimental: The assay for biological activity, which is based on the ability to stimulate production of growth hormone in rat pituitary cells in tissue culture, was performed as discribed in Example 2.
Pituitaries from 30-40 male Sprague-Dawley rats (175 g) were removed aseptically after decapitation. The anterior lobes were collected, washed 3 times in sterile Hepes buffer (0.025M) (pH 7.35) and dispersed at 37° C. in 20-30 ml Hepes buffer (pH 7.35) containing collagenase (4 mg per ml) and Dispase (Protease grade II, 2 mg per ml). After gentle 100-110 min vortexing and trituration by Pasteur pipette, the dispersed cells were separated by centrifugation (150×g, 4 min) and re-suspended in Hepes buffer containing neuraminidase ([…]), and 200 µg/ml ethylenediaminetetraacetic acid (EDTA) disodium salt, pH 7.35, for 10 min.
The cells were washed twice with plating medium and plated on multiwell-plates (1.5×10^5 cells per ml) using the following defined medium: F-12/DMEM/BGJ (6:3:1) (Gibco: 430-1700/430-1600/320-2591) with 2 g BSA/l., 2.38 g Hepes/1.50 mg PSN antibiotic mixture (Gibco Laboratories), 10 mg/l transferrin (Sigma T2252) with 1.83 g NaHCO3 /l (Baker 3506). The medium in each well was supplemented either with a sample of the novel GRF peptide or natural GRF(1-44)-NH2 at concentrations ranging from 0.8 to 200 fmol per ml of medium. Control wells contained no supplement. Plating was done with this medium added with 2% fetal calf serum to ensure rapid fixation of the cells.
On the fourth day, the cells were washed twice with the defined medium without fetal calf serum. Finally 900 μl of defined medium was added to each well plus 100 μl of the same medium containing each individual treatment, in triplicate. After 4 hours of incubation the medium was collected and diluted as required to conduct radioimmunoassay (RIAs) for rat growth hormone.
RIAs for rat growth hormone were conducted using Sinha's anti-murine GH immune serum and procedures according to the National Pituitary Agency using protein A to precipitate antibody antigen complex.

GRF(1-29)-NH2 [GRF(1-29)NH2]
Intrinsic activity and potency on a weight for weight basis [1]: full intrinsic activity and potency
Potency Relative to GRF(1-44)-NH2 [2]: 0.5

GRF(1-44)-NH2 [GRF(1-44)NH2]
Potency Relative to GRF(1-44)-NH2 [2]: 1.0
Biological activity compared with natural GRF(1-44)-NH2 ([2]; vs natural GRF(1-44)-NH2 isolated from human pancreatic tumor (Salk Institute standard hGRF-NH2 (NL-A-10))): identical to the natural GRF(1-44)-NH2
